Assay results as given in patent publication US6541486B1, “Bis-benzimidazole compounds and analogs thereof for inhibiting cell death” (Elan Pharma International Ltd., priority 1999, dated 2003).

How the values were obtained:
[1] = system: OGD cells (retinal ganglion cells); assay: Increase in survival of OGD cells at fixed concentrations (similar assay); type: cell-based, rat; parameters: key: +: up to 50% increase; ++: 50%-100% increase; +++: >100% increase; —: negligible or no increase
[2] = system: Oxygen/Glucose Deprived RGCs (retinal ganglion cells); assay: Protection of oxygen/glucose deprived (OGD) retinal ganglion cells, EC50; details: overall judgement
Description: Each compound was added to control cells and to cells deprived of oxygen and glucose for the time period from 30 minutes prior to OGD, during OGD, and for 24 and 48 hours after OGD.
RGCs from postnatal day 8 (P8) Sprague-Dawley rats were purified as previously described (Barres et al., 1988; Meyer-Franke et al., 1995). Purified retinal ganglion cells were plated onto tissue culture plastic precoated with poly-D-lysine and merosin, and cultured in serum-free Neurobasal medium (Gibco) containing various supplements.
Approximately 5,000 purified RGCs were cultured in 96-well plates (Falcon), precoated with poly-D-lysine (PDL, 70 kD, 10 mg/ml; Sigma) and merosin (2 mg/ml; Gibco). The RGCs were cultured in serum-free Neurobasal medium (Brewer et al., 1993; Gibco) containing Sato-Bottenstein and B27 (Gibco) supplement, insulin (Sigma, 5 mg/ml), brain-derived neurotrophic factor (BDNF, 25 ng/ml; Preprotech), ciliary neurotrophic factor (CNTF, 20 ng/ml; Preprotech) and forskolin (10 mM, Sigma). The percentage of surviving cells was assessed at 3, 7, and 14 days by the MTT assay.
Retinal ganglion cells were grown in 96-well plates for 5 days in serum-free medium as described above. On the sixth day cells were washed three times in a salt solution, e.g. Earle's balanced salt solution (EBSS, Gibco), containing glucose for control cells, and lacking glucose for test cells (oxygen/glucose-deprived cells). Control cells were further incubated in a 5% CO2 incubator while OGD cells were deprived of oxygen in an anaerobic chamber (for 3 hours). Test compounds were added to control cells and OGD cells for the time period from 30 minutes prior to OGD, during OGD, and for 24 and 48 hours after OGD.
After 3 hours OGD, control and test cells were transferred to growth medium with glucose and cultured an additional 48 hours in a 5% CO2 incubator, followed by a determination of cell viability using MTT, propidium iodide and annexin assays.
For the cell viability assay, MTT was added to culture and incubated at 37° C. for 1 hr. […] Viable and dead cells are counted by bright field microscopy at various times, e.g. 24, 48, or 72 hours after oxygen/glucose and/or growth factor deprivation. All values are reported as the mean (average) +/− the standard error of the mean (SEM) for at least three replicate cultures.

SMILES | Percent Increase in Survival over OGD Control Cells ([1]; Concn 0.01 μM) | Percent Increase in Survival over OGD Control Cells ([1]; Concn 0.1 μM) | Percent Increase in Survival over OGD Control Cells ([1]; Concn 10 μM) | Percent Increase in Survival over OGD Control Cells ([1]; Concn .1 μM) | Percent Increase in Survival over OGD Control Cells ([1]; Concn 1 μM) | Effectiveness in protecting OGD RGCs (in words, from Tables 5 and 6) [2] | Percent Increase in Survival over OGD Control Cells ([1]; Concn 0.001 μM)
c1ccc2[nH]c(Cc3nc4ccccc4[nH]3)nc2c1 [SNX 857] | + (up to 50% increase) | +++ (>100% increase) | +++ (>100% increase) | ++ (50%-100% increase) |  |  | 
O=[N+]([O-])c1ccc2[nH]c(Cc3nc4ccc([N+](=O)[O-])cc4[nH]3)nc2c1 [SNX 897, 5,5′-dinitro*] | ++ (50%-100% increase) | ++ (50%-100% increase) |  |  | ++ (50%-100% increase) |  | 
Nc1ccc2[nH]c(Cc3nc4ccc(N)cc4[nH]3)nc2c1 [SNX 898, 5,5′-diamino*] | + (up to 50% increase) | + (up to 50% increase) | — |  | + (up to 50% increase) |  | 
Clc1ccc2[nH]c(Cc3nc4ccccc4[nH]3)nc2c1 [SNX 899, 5-chloro*] | + (up to 50% increase) | ++ (50%-100% increase) | + (up to 50% increase) | ++ (50%-100% increase) | ++ (50%-100% increase) |  | 
O=[N+]([O-])c1cccc2[nH]c(Cc3nc4ccccc4[nH]3)nc12 [SNX 900, 2-(1H-benzimidazol-2-ylmethyl)4-nitro-1H-benzimidazole] | ++ (50%-100% increase) | +++ (>100% increase) | + (up to 50% increase) | ++ (50%-100% increase) |  | more effective overall than the unsubstituted compound | 
O=[N+]([O-])c1cccc2[nH]c(Cc3nc4c([N+](=O)[O-])cccc4[nH]3)nc12 [SNX 901, 4,4′-dinitro*] | ++ (50%-100% increase) | ++ (50%-100% increase) | +++ (>100% increase) | +++ (>100% increase) |  | more effective overall than the unsubstituted compound | 
Nc1cccc2[nH]c(Cc3nc4c(N)cccc4[nH]3)nc12 [SNX 903, 4,4′-diamino*] | +++ (>100% increase) | +++ (>100% increase) | ++ (50%-100% increase) | +++ (>100% increase) |  | more effective overall than the unsubstituted compound | 
Oc1cccc2[nH]c(Cc3nc4c(O)cccc4[nH]3)nc12 [SNX 909, 4,4′-dihydroxyl*] | + (up to 50% increase) | ++ (50%-100% increase) | + (up to 50% increase) | +++ (>100% increase) |  | more effective overall than the unsubstituted compound | 
Cn1c(Cc2nc3ccccc3n2C)nc2ccccc21 [SNX 910, 1,1′-dimethyl*] | ++ (50%-100% increase) | ++ (50%-100% increase) | + (up to 50% increase) | +++ (>100% increase) |  |  | 
c1cnc2[nH]c(Cc3nc4cccnc4[nH]3)nc2c1 [SNX 911, 2,2′-methylenebis(4-azabenzimidazole)] |  |  |  |  |  | very effective | 
Nc1cccc2[nH]c(Cc3nc4cc(Cl)ccc4[nH]3)nc12 [SNX 923, 2-[(5-Chloro-1H-benzimidazol-2-yl)methyl]-1H-benzimidazol-4-amine] | +++ (>100% increase) | +++ (>100% increase) | +++ (>100% increase) |  | +++ (>100% increase) | more effective overall than the unsubstituted compound | +++ (>100% increase)
CC(c1nc2ccccc2[nH]1)c1nc2ccccc2[nH]1 [SNX 925, 2,2′-ethylidenebisbenzimidazole] | +++ (>100% increase) | +++ (>100% increase) | +++ (>100% increase) |  | +++ (>100% increase) | very effective | ++ (50%-100% increase)
Fc1cccc2[nH]c(Cc3nc4c(F)cccc4[nH]3)nc12 [SNX 930, 4,4′-difluoro*] | +++ (>100% increase) | + (up to 50% increase) | ++ (50%-100% increase) |  | ++ (50%-100% increase) | more effective overall than the unsubstituted compound | + (up to 50% increase)
N#Cc1ccc2[nH]c(Cc3nc4ccc(C#N)cc4[nH]3)nc2c1 [SNX 931, 5,5′-dicyano*] | + (up to 50% increase) | + (up to 50% increase) | ++ (50%-100% increase) |  | — |  | —
Cc1nc(-c2nc(C)c(C)[nH]2)[nH]c1C [SNX 939, 2,2′-bis(4,5-dimethylimidazole)] |  |  |  |  |  | very effective | 
NC(c1ncc[nH]1)c1ncc[nH]1 [SNX 949, 2,2′-(aminomethylene)bisimidazole] |  |  |  |  |  | very effective | 
O=C(c1ncc[nH]1)c1ncc[nH]1 [SNX 951, di(imidazol-2-yl)methanone] |  |  |  |  |  | very effective | 
c1ccc2[nH]c(CC3=NCCN3)nc2c1 [SNX 978, 2-(4,5-dihydroimidazol-2-yl)methyl benzimidazole] |  |  |  |  |  | very effective | 
c1ccc(CN2CCN=C2Cc2nc3ccccc3[nH]2)cc1 [SNX 979, 2-(1-benzyl-4,5-dihydroimidazol-2-yl)methyl benzimidazole] |  |  |  |  |  | very effective | 
CN1CC[N+](C)=C1Cc1nc2ccccc2[nH]1 [SNX 980, 2-(1,3-Dimethyl-4,5-dihydro-1H-imidazol-2-ylmethyl)-1H-benzimidazole] |  |  |  |  |  | very effective | 
CN1CCN=C1Cc1nc2ccccc2[nH]1 [SNX 1019, 2-(1-methyl-4,5-dihydroimidazol-2-yl)methyl benzimidazole] |  |  |  |  |  | very effective | 
CC1(C)CN=C(Cc2nc3ccccc3[nH]2)N1 [SNX 1020, 2-(5,5-Dimethyl-4,5-dihydro-1H-imidazol-2-ylmethyl)-1H-benzimidazole] |  |  |  |  |  | very effective | 
CN1CCN=C1CCc1nc2ccccc2n1C [SNX 1771] |  |  |  |  |  | very effective | 
c1ccc2[nH]c(CC3=NCCCN3)nc2c1 [SNX 1818, 2-(3,4,5,6-tetrahydropyrimidin-2-yl)methyl benzimidazole] |  |  |  |  |  | very effective | 
c1ccc2[nH]c(CC3=NCCCCN3)nc2c1 [SNX 1819, 2-(4,5,6,7-tetrahydro-1,3-diazepin-2-yl)methyl benzimidazole] |  |  |  |  |  | very effective | 
